Assay results as given in US20210402016A1, “RADIOLABELED BOMBESIN-DERIVED COMPOUNDS FOR IN VIVO IMAGING OF GASTRIN-RELEASING PEPTIDE RECEPTOR (GRPR) AND TREATMENT OF GRPR-RELATED DISORDERS” (Provincial Health Services Authority, priority 2018, published 2021).
Several values for one entry are separate records, joined by “and”; a condition that tells them apart may be missing. Equal values may be shown once.

Experiments:
[1] = test system: PC-3 cells; assay: Fluorometric calcium release assay (FLIPR Calcium 6); format: cell-based, human
Experimental: Calcium release assays were performed using a FLIPR Calcium 6 assay kit (Molecular Devices) according to published procedures (26). Briefly, 5×10^4 PC-3 cells were seeded overnight in 96-well clear bottom black plates. The growth medium was replaced with loading buffer containing a calcium-sensitive dye and incubated for 30 min at 37° C. The plate was placed in a FlexStation 3 microplate reader (Molecular Devices) and baseline fluorescent signals were acquired for 15 sec. […] The relative fluorescence unit (RFU=Max-Min) was used to determine the agonistic/antagonistic properties.

[2] = biological target: T1, human GRPR (Homo sapiens, UniProt P30550); assay: Competition binding assay, displacement of [^125I-Tyr^4]Bombesin on PC-3 cells
T1 construct: endogenous in cells; host or cells: PC-3 human prostate adenocarcinoma cells (whole cells)
Experimental: Cells were incubated 30-60 min at 37° C.

[3] = test system: PC-3 xenograft bearing mice; conditions: PET/CT, PC-3 tumor-bearing mice
Experimental: Animal experiments were approved by the Animal Ethics Committee of the University of British Columbia. Male NOD.Cg-Rag1^tm1Mom∥2rg^tm1Wjl/SzJ (NRG) mice obtained from an in-house colony were subcutaneously inoculated with 5×10^6 PC-3 cells (100 μL; 1:1 PBS/Matrigel), and tumors were grown for 2 to 3 weeks.
Mice were sedated and scanned (Siemens Inveon microPET/CT) with body temperature maintained by heating pad. […] PET data were acquired in list mode, reconstructed using 3-dimensional ordered-subsets expectation maximization (2 iterations) followed by a fast maximum a priori algorithm (18 iterations) with CT-based attenuation correction. Images were analyzed using the Inveon Research Workplace software (Siemens Healthineers).

[4] = test system: PC-3 xenograft bearing mice; assay: Biodistribution in PC-3 tumor-bearing NRG mice (Example 1); format: in vivo
Experimental: The mice were sacrificed by CO2 inhalation at 30 min, 1 h, and 2 h p.i. Blood was collected by cardiac puncture. Organs/tissues were harvested, rinsed with PBS, blotted dry, and weighed. The activity in tissues was assayed by gamma counter and expressed as the percentage injected dose per gram of tissue (% ID/g).

[5] = test system: nude mice bearing PC-3 tumors; conditions: Dalm et al.; cited from earlier work
[6] = biological target: T2, GRPR (Mus musculus, UniProt P21729); conditions: determined using Swiss 3T3 cells; read-out: Reported Ki value; cited from earlier work
T2 construct: the latter value was determined using Swiss 3T3 cells (17); host or cells: Swiss 3T3 cells
T2 sequence (P21729 whole entry): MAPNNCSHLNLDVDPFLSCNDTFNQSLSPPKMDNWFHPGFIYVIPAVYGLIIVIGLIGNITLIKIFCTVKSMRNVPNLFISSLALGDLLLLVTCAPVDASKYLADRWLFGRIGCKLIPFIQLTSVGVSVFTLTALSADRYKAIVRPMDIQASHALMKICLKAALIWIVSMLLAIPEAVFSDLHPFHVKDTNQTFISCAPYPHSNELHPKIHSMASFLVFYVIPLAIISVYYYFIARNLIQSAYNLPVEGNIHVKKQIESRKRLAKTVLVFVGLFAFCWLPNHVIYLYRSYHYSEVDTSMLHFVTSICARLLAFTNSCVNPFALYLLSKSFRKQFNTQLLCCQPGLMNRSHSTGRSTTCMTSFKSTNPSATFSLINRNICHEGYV

T1 sequence (P30550 whole entry): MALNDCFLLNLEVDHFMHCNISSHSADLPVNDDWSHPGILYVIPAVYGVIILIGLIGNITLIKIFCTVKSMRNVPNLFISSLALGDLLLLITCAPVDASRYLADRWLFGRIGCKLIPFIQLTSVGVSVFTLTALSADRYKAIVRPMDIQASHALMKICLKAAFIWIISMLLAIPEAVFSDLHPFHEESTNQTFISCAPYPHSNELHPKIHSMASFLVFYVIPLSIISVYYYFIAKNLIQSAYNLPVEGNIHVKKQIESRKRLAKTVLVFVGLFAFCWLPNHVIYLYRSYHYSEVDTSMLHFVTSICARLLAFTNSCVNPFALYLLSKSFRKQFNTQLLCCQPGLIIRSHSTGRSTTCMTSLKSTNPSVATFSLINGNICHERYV

**Q.** For `Nc1ncnc2c1ncn2[C@@H]1O[C@H](COP(=O)(O)OP(=O)(O)OP(=O)(O)O)[C@@H](O)[C@H]1O` [ATP, adenosine triphosphate, reference compound], which Intracellular calcium release ([1]; 50 nM) is on record?
**A.** Its Intracellular calcium release is 511±45.5 RFUs.

**Q.** Which Ki [2] does the source give for `CC(C)CC(CC(C)C)NC(=O)[C@H](Cc1c[nH]cn1)NC(=O)CNC(=O)[C@@H](NC(=O)[C@H](C)NC(=O)[C@H](Cc1c[nH]c2ccccc12)NC(=O)[C@H](CCC(N)=O)NC(=O)[C@@H](Cc1ccccc1)NC(=O)COCC(=O)Nc1ccc(CNC(=O)CN2CCN(CC(=O)O)CCN(CC(=O)O)CCN(CC(=O)O)CC2)cc1)C(C)C` [Ga-NeoBOMB1, reference compound] here?
**A.** Its Ki is 1.71 ± 0.28 nM.

**Q.** Which “Excretion / clearance pathway” value [3] does the source give for `CC(C)CC(CC(C)C)NC(=O)[C@H](Cc1cnc[nH]1)NC(=O)CNC(=O)[C@@H](NC(=O)[C@H](C)NC(=O)[C@H](Cc1c[nH]c2ccccc12)NC(=O)[C@H](CCC(N)=O)NC(=O)[C@@H](Cc1ccccc1)NC(=O)COCC(=O)Nc1ccc(CNC(=O)CN2CCN(CC(=O)O)CCN(CC(=O)O)CCN(CC(=O)O)CC2)cc1)C(C)C` [^68Ga-NeoBOMB1, metal not drawn, reference compound] here?
**A.** Its value is “both the hepatobiliary and renal pathways”.

**Q.** What about the “Biodistribution PC-3 Tumor, Mean” value ([4]; 30 min p.i.) of the same compound?
**A.** Its value is 9.60±0.99 % ID/g.

**Q.** What about the “Biodistribution Pancreas, Mean” value ([4]; 30 min p.i.) of the same compound?
**A.** Its value is 95.7±12.7 % ID/g.

**Q.** And the “Biodistribution PC-3 Tumor, Mean” value ([4]; 60 min p.i.)?
**A.** The value was 9.83±1.48 % ID/g.

**Q.** What about the “Biodistribution Pancreas, Mean” value ([4]; 60 min p.i.) of the same compound?
**A.** The value was 122±28.4 % ID/g and 123±28.4 % ID/g.

**Q.** What about the “Biodistribution Blood, Mean” value ([4]; 120 min p.i.) of the same compound?
**A.** Its value is 0.45±0.10 % ID/g.

**Q.** What about the “Biodistribution PC-3 Tumor, Mean” value ([4]; 120 min p.i.) of the same compound?
**A.** Its value is 12.1±3.72 % ID/g.

**Q.** And the “Biodistribution Pancreas, Mean” value ([4]; 120 min p.i.)?
**A.** Its value is 139±26.8 % ID/g.

**Q.** And the Uptake in pancreas [5]?
**A.** The Uptake in pancreas was roughly 15 % ID/g.

**Q.** And the Uptake in tumor [5]?
**A.** Its Uptake in tumor is roughly 10 % ID/g.

**Q.** With “D-Phe-Gln-Trp-Ala-Val-Gly-His-Leu-L-Tac-NH2 [RC-3950-II]” as the compound, how does the Ki [6] read?
**A.** The Ki was 0.078 nM.

**Q.** Which Intracellular calcium release ([1]; 5 nM) does the source give for “[D-Phe^6, Leu-NHEt^13, des-Met^14]Bombesin(6-14) [reference compound]” here?
**A.** Its Intracellular calcium release is 22.3±16.8 RFUs.

**Q.** What about the Intracellular calcium release ([1]; 50 nM) of the same compound?
**A.** Its Intracellular calcium release is 42.0±20.4 RFUs.
